# pIC50: −log10 of the molar value.
# Assays:
# OVCAR3 cells = assay: Detection of cell proliferation activity by CCK8 method (OVCAR3); format: cell-based
# How it was run: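 OVCAR3 tumor cells in log-phase growth were trypsinized, counted and plated at 180 μL per well in 96-well plates, with PBS in the outer wells. The following day, compounds were added in 9 concentrations (1:5 dilutions starting at 10 μM final) in triplicate alongside DMSO controls. After 96 h, medium was swapped for 100 μL medium containing 10% CCK8. Plates were incubated 2 h at 37° C and read at 450 nm. Background-corrected inhibition relative to DMSO was fitted by non-linear regression in GraphPad Prism 7.0 to obtain IC50.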
# [1] = Stability test in rat liver microsomes; format: in vitro ADME, Sprague-Dawley rats; conditions: rat liver microsomes 0.5 mg/mL, 1.0 μM substrate; for CLint scaled at 1 μM / half-life at 1 μM: Sprague-Dawley, pH 7.4; for CLint scaled at 1 μM: read-out: RLM 0.5 CLint(liver); for half-life at 1 μM: read-out: RLM 0.5 T½
# Experimental: The phase I metabolic stability of the compounds in liver microsomes of CD-1 mice, Sprague-Dawley rats, beagle dogs, cynomolgus monkeys, and humans was assessed.
# The animal and human liver microsomes used in the test system were purchased from Xenotech, Corning, or other qualified suppliers and stored in a freezer at a temperature below −60° C. prior to use.
# The test samples and control compounds were separately incubated with animal and human liver microsomes at 37±1° C. for a period of incubation time up to 60 min. The samples were removed at the indicated time points, and the reaction was stopped with acetonitrile or another organic solvent containing an internal standard. After centrifugation, the resulting supernatants were assayed by the liquid chromatography-tandem mass spectrometry (LC-MS/MS) method.
# 73.21 g of dipotassium hydrogen phosphate trihydrate and 10.78 g of potassium dihydrogen phosphate were dissolved in 4000 mL of ultrapure water. The solution was adjusted to pH 7.40±0.10 with 10% phosphoric acid or 1 M potassium hydroxide to make a final concentration of 100 mM.
# The test sample powder was prepared into a stock solution at a certain concentration with DMSO or another organic solvent, which was then further diluted with a suitable organic solvent.
# Microsomes of each species were diluted into a 2× working solution with a 100 mM potassium phosphate buffer. The final concentration of the microsomes in the reaction system was 0.5 mg/mL.
# An appropriate amount of nicotinamide adenine dinucleotide phosphate (NADP) and isocitric acid (ISO) powder was weighed out, dissolved in a magnesium chloride solution, and shaken and mixed well. An appropriate amount of isocitrate dehydrogenase (IDH) was added, and the mixture was mixed well by gently turning upside down. The final concentrations in the reaction system were: 1 mM NADP, 1 mM magnesium chloride, 6 mM ISO, and 1 unit/mL IDH.
# The stop solution was prepared with acetonitrile or another organic solvent containing an internal standard (tolbutamide or another suitable compound). The prepared stop solution was stored in a freezer at 2-8° C.
# Incubation was performed in a 96-well plate. Eight incubation plates were prepared and designated T0, T5, T15, T30, T45, T60, Blank60, and NCF60, respectively. The first 6 plates corresponded to reaction time points of […], respectively. No test sample or control compound was added to the Blank60 plate, and samples were taken after 60 min of incubation. In the NCF60 plate, incubation was performed for 60 min using the potassium phosphate buffer instead of the NADPH regeneration system solution. Three replicates were made for samples in all conditions.
# The microsomes and the test sample or control compound were mixed, and then the incubation plates Blank60, T5, T15, T30, T45, and T60 except for TO and NCF60 were placed in a 37° C. water bath for pre-incubation for about 10 min. In the incubation plate T0, a stop solution was first added, followed by addition of the NADPH regeneration system working solution, and 98 μL of the potassium phosphate buffer was added to each sample well of the incubation plate NCF60 to initiate the reaction. After the pre-incubation of the incubation plates Blank60, T5, T15, T30, T45, and T60 was completed, 98 μL of the NADPH regeneration system working solution was added to each sample well to initiate the reaction. The reaction temperature was 37±1° C., the final volume of the reaction was 200 μL, and the reaction system included 0.5 mg/mL microsomes, 1.0 μM substrate, 1 mM NADP, 6 mM ISO, and 1 unit/ml IDH.
# At 5 min, 15 min, […], 45 min, and 60 min, a cold stop solution containing an internal standard was added to the reaction plate to stop the reaction.
# All the reaction plates after the reaction was stopped were shaken well and centrifuged at 3220×g at 4° C. for 20 min. After the supernatant was diluted at a certain ratio, LC-MS/MS analysis was performed. […]
# [2] = molecular target: cytochrome oxidase P450 2C19 (Homo sapiens (Human), UniProt P33261); assay: Inhibition of cytochrome oxidase P450 2C19; format: in vitro ADME; conditions: liver microsomes, CYP2C19
# Sequence of cytochrome oxidase P450 2C19 (P33261 whole entry): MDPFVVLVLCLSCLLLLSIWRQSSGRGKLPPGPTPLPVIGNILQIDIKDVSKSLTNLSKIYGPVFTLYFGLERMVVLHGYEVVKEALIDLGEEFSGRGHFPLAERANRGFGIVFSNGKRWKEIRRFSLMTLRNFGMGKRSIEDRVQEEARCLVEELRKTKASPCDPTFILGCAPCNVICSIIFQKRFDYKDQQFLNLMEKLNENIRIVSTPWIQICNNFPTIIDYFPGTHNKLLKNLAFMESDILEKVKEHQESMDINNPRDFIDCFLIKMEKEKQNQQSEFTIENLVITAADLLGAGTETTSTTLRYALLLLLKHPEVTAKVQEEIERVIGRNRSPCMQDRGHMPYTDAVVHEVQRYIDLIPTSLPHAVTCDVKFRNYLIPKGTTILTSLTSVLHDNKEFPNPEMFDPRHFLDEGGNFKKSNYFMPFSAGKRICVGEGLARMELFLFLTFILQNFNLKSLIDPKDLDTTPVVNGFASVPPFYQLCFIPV
# [3] = molecular target: cytochrome oxidase P450 2D6 (Homo sapiens (Human), UniProt P10635); assay: Inhibition of cytochrome oxidase P450 2D6; format: in vitro ADME; conditions: liver microsomes, CYP2D6
# Sequence of cytochrome oxidase P450 2D6 (P10635 whole entry): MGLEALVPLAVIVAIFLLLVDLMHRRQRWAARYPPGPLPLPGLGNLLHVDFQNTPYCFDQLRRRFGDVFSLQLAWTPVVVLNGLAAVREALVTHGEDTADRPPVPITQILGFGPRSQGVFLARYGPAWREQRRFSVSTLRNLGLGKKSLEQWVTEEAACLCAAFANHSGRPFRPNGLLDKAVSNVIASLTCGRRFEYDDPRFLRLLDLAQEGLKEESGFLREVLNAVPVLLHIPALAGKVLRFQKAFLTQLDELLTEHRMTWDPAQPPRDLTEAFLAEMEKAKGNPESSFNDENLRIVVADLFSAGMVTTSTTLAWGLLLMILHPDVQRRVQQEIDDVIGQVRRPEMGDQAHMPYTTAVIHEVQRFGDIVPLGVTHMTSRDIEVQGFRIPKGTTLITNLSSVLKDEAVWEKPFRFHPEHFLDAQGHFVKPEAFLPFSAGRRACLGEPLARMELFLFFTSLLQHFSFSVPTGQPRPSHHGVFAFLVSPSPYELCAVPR
# [4] = molecular target: cytochrome oxidase P450 3A4 (Homo sapiens (Human), UniProt P08684); assay: Inhibition of cytochrome oxidase P450 3A4 (Midazolam); format: in vitro ADME; conditions: liver microsomes, CYP3A4, Midazolam
# Sequence of cytochrome oxidase P450 3A4 (P08684 whole entry): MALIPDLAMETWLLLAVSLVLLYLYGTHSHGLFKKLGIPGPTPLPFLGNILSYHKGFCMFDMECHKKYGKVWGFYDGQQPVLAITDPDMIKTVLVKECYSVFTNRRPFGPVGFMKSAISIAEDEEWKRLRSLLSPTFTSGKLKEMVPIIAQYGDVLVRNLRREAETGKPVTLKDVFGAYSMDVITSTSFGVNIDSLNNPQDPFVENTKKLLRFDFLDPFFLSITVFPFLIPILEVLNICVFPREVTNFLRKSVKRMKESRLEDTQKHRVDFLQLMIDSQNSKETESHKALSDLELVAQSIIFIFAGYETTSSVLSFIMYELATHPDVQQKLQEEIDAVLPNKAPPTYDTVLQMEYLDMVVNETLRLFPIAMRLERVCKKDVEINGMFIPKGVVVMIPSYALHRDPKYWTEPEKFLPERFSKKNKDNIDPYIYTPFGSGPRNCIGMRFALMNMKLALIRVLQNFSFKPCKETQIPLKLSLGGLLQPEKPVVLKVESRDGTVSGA
# [5] = Homo sapiens, OVCAR-3, CCK8, 96 h
pIC50 (OVCAR3 cells; [5]),CLint scaled at 1 μM [1],half-life at 1 μM [1],pIC50 [2],pIC50 [3],pIC50 [4],SMILES,"pIC50 (OVCAR3 cells; CCK8, 96 h)",RLM 0.5 CLint(liver) [1],RLM 0.5 T½ [1]
8.14,< 17.3 mL/min/kg,> 145 min,< 5.00,< 5.00,< 5.00,O=C(Nc1cn2ccnc2c(N2CCC(F)(F)CC2)n1)c1ccc(NS(=O)(=O)CCO)cc1N1CCC2(CC1)CC2 [Compound 8],–,–,–
–,17.2 mL/min/kg,145 min,–,–,–,O=C(Nc1cc2ccsc2c(N2CCC(F)(F)CC2)n1)c1ccc(NS(=O)(=O)CCO)cc1N1CCC2(CC1)CC2 [Compound 15],–,–,–
8.10,9 mL/min/kg,276 min,6.01,5.65,6.62,CS(=O)(=O)Nc1ccc(C(=O)Nc2cc3cc[nH]c3c(N3CCC(F)(F)CC3)n2)c(N2CCC3(CC2)CC3)c1 [Compound 47],–,–,–
6.84,–,–,–,–,–,Cc1cc(NC(=O)c2ccc(NS(=O)(=O)CCO)cc2N2CC3CCC(C3)C2)nc(N2CCC(F)(F)CC2)n1 [Compound 3],–,–,–
7.24,< 17.3 mL/min/kg,> 145 min,< 5.00,< 5.00,< 5.00,O=C(Nc1cc2ccccc2c(N2CCC(F)(F)CC2)n1)c1ccc(NS(=O)(=O)CCO)cc1N1CCC2(CC1)CC2 [Compound 6],–,–,–
7.97,4.4 mL/min/kg,560 min,< 5.00,< 5.00,< 5.00,O=C(Nc1cn2c(F)cnc2c(N2CCC(F)(F)CC2)n1)c1ccc(NS(=O)(=O)CCO)cc1N1CCC2(CC1)CC2 [Compound 34],–,–,–
–,19.3 mL/min/kg,129 min,–,–,–,CS(=O)(=O)Nc1ccc(C(=O)Nc2cn3ccnc3c(N3CCC(F)(F)CC3)n2)c(N2CCC3(CC2)CC3)c1 [Compound 10],–,–,–
8.24,< 17.3 mL/min/kg,> 145 min,–,–,–,O=C(Nc1cn2ncnc2c(N2CCC(F)(F)CC2)n1)c1ccc(NS(=O)(=O)CCO)cc1N1CCC2(CC1)CC2 [Compound 23],–,–,–
–,–,–,–,–,–,O=C(Nc1cn2cnnc2c(N2CCC(F)(F)CC2)n1)c1ccc(NS(=O)(=O)CCO)cc1N1CCC2(CC1)CC2 [Compound 24],7.91,29.5 mL/min/kg,84.6 min
–,34.3 mL/min/kg,72.8 min,–,–,–,O=C(Nc1cc2c(c(N3CCC(F)(F)CC3)n1)COC2)c1ccc(NS(=O)(=O)CCO)cc1N1CCC2(CC1)CC2 [Compound 14],–,–,–
8.47,< 17.3 mL/min/kg,> 145 min,< 5.00,< 5.00,< 5.00,O=C(Nc1cc2cccnc2c(N2CCC(F)(F)CC2)n1)c1ccc(NS(=O)(=O)CCO)cc1N1CCC2(CC1)CC2 [Compound 21],–,–,–
8.47,–,–,–,–,–,O=C(Nc1cc2cc[nH]c2c(N2CCC(F)(F)CC2)n1)c1ccc(NS(=O)(=O)CCO)cc1N1CCC2(CC1)CC2 [Compound 22],–,–,–
7.64,27.3 mL/min/kg,91.5 min,< 5.00,< 5.00,< 5.00,CS(=O)(=O)Nc1ccc(C(=O)Nc2cn3ccnc3c(N3CCC(F)(F)CC3)n2)c(N2CC3CCC(C3)C2)c1 [Compound 19],–,–,–

# — patent publication US20250382298A1, “NITROGEN-CONTAINING COMPOUND AND USE THEREOF” (SUZHOU GENHOUSE BIO CO., LTD., priority 2022, published 2025)
